# Measurements: patent US11491146B2, “Therapeutic methods and combinations” (priority 2017, dated 2022)
# Where “and” joins values, the source holds several entries; their conditions need not be identical. Equal entries are not always repeated. Where two headings read alike, the source gives them in different places.
# How the values were obtained:
# E. coli = test: Cell viability assay, wild type E. coli growth; format: cell-based; details: for relative percentage growth compared to untreated cells: E. coli
# Protocol: (§1) The cells were cultured on 0.8 g/100 ml nutrient agar plate at pH 7.0 and 37° C. The bacterial growth medium was diluted in nutrient broth (NB) to a concentration absorbance of 1.5 at OD600 nm and incubated overnight in 10 ml capped culture tubes with shaking. An overnight culture of the bacterial strain was sub-cultured to an optical density of 0.06 at OD600 nm into the NB medium and was then seeded at max 200 μl into the wells of a 96 well microtiter plate. Samples were then incubated at 37° C. and shaken at 200 rpm for 18 h.
# VIM2 expressing E. coli = format: cell-based
# Protocol: as §1
# VIM-2 [1] = biological target: T1, VIM-2 (Pseudomonas aeruginosa, UniProt Q9K2N0); test: Single dose enzymatic inhibition assay against VIM2 (nitrocefin hydrolysis); format: biochemical, P. aeruginosa; details: for VIM2 inhibition in words: single dose, 50 μM
# Protocol: (§2) For our biochemical assay, the blavmugene, from a clinical strain of P. aeruginosa, was expressed using the pET24a (+) vector [20]. The pET24a-VIM-2 plasmid was transformed into competent BL21 (DE3) E. coli cells. The cells were plated onto an LB-agar plate with kanamycin (25 μg/mL) and incubated overnight at 37° C. A single colony was used to inoculate 50 mL of LB, containing 25 μg/mL kanamycin, and the culture was shaken overnight at 37° C. From the overnight culture, 10 mL were transferred to 4×1 L LB medium containing 25 μg/mL kanamycin. The cultures were grown at 37° C. until the optical density (OD600 nm) reached 0.6-0.8, at which point protein production was induced with IPTG (0.5 mM) and ZnC12 (100 μM). The temperature was reduced to 20° C., and the cells were shaken for an additional 18 h. The cultures were harvested by centrifugation (8K×g) for 10 min at 4° C. The resulting pellets were re-suspended with 25 mL of 50 mM HEPES, pH 7.5, containing 500 mM NaCl (buffer B). The cells were lysed with three passes through a French Press. The lysate was centrifuged (15 Kxg) for 30 min at 4° C. The supernatant was dialyzed against 2 L of 50 mM HEPES, pH 7.5 (buffer A), for 4 h. Buffer A was used to equilibrate a 25 mL Q-Sepharose column using an FPLC. The sample was loaded onto the column, and proteins were eluted with a linear gradient 0-500 mM NaCl with buffer B. Fractions containing VIM2, determined by SDS-PAGE, were pooled and concentrated to 2-3 mL in an Amicon ultraconcentrator equipped YM-10 membrane. Further purification was conducted with a Sephacryl S-200 gel filtration column using 50 mM HEPES, pH 7.5, containing 150 mM NaCl.
# [2] = Cytotoxicity by MTT cell proliferation assay in HEK293; details: human, HEK293 cells
# Protocol: (§3) Human embryonic kidney cell line (HEK293) was grown in DMEM (Dulbecco's modifications of eagle's medium with L-glutamine & 4.5 G/L glucose) supplemented with fetal bovine serum 100 units/ml of penicillin G and 0.1 mg/ml of streptomycin sulfate in a humidified atmosphere of a 5% CO2 at 37° C.
# (§4) Cell proliferations were measured by counting viable cells by using the 3(4,5dimethylthiazol-2-yl)-2,5-diphenyltetrazolium bromide (MTT) (Sigma-Aldrich, St. Louis, Mo.) colorimetric dye-reduction assay. […] After 72 hrs, 10 μl of MTT (5 mg/ml) dye was added to each well and the plates were incubated for 4 hours at 37° C. in 5% CO2 incubator. After centrifuge with 1,500 rpm/10 mins, the supernatant was removed and 200 μl of dimethyl sulfoxide (DMSO) was added and the plates were gently shaken to solubilize the formed formazan for 30 min. The absorbance was measured using a micro-plate reader at wave length 590 nm. The CC50 were obtained by fitting the data to a sigmoidal dose-response equation using Graphpad Prism 6.
# VIM-2 [3] = biological target: T1, VIM-2; test: Dose response enzymatic inhibition assay and inhibition constant against VIM2; format: biochemical, P. aeruginosa; details: for Ligand efficiency (LE): LE = −1.38 log (Ki)/N, N = number of heavy atoms
# Protocol: as §2
# The relative change in absorbance was evaluated as percentage inhibition and the IC50 was determined by fitting the data to a sigmoidal dose-response curve. The enzyme inhibition constant (Ki) was derived from initial-velocity measurements by nonlinear regression using competitive-inhibition enzyme kinetics using Graphpad Prism 6.
# HEK293 cells [4] = system: HEK293 cells
# Protocol: as §3, §4
# HEK293 cells [5] = test: Cytotoxicity by MTT cell proliferation assay in HEK293; details: HEK293 CC50 ratio
# Protocol: as §3, §4
# VIM-2 expressing E. coli = test: EC50* for restoring amoxicillin growth inhibition in VIM-2 expressing E. coli; format: cell-based; details: in the presence of 50 μM amoxicillin
# Protocol: as §1
# The bacterial culture was prepared as described above. […] The mixing of the bacterial culture plate were then incubated in a 37° C. […] shaken incubator at 200 rpm for 18 h before measuring their optical density at 600 nm.
# HDACs = details: earlier study; cited from earlier work
# VIM-2 [6] = biological target: T1, VIM-2; details: literature value; read-out: IC50 in parenthesis reported from ref. 3; cited from earlier work
# [7] = 50 μM compound, 5 nM VIM-2, 10 μM nitrocefin, 30 mins
# [8] = 5 nM VIM-2, 10 μM nitrocefin, read-out: IC50
# [9] = competitive-inhibition fit, nitrocefin substrate, read-out: Ki
Compound,"relative percentage growth compared to untreated cells (E. coli; Amox(+), 50 μM amoxicillin)","relative percentage growth compared to untreated cells (VIM2 expressing E. coli; Amox(+), 50 μM amoxicillin)",relative percentage growth compared to untreated cells (E. coli; Amox(−)),relative percentage growth compared to untreated cells (VIM2 expressing E. coli; Amox(−)),% Inhibition at 50 μM (VIM-2 [1]; [7]),inhibition at 50 µM (VIM-2 [1]; [7]),VIM2 inhibition in words (VIM-2 [1]),further results
"CC1(C)S[C@@H]2[C@H](NC(=O)[C@H](N)c3ccc(O)cc3)C(=O)N2[C@H]1C(=O)O [Amox, amoxicillin]",3.6%,77%,–,–,–,–,–,"growth inhibition by amoxicillin alone (E. coli; wild type E. coli, 50 μM): over 96%"
O=C(O)[C@H]1/C(=C/CO)O[C@@H]2CC(=O)N21 [Clavulanate],2.9%,57%,86%,93%,15%,≤ 25%,–,–
"O=C(NC(C(=O)O)c1ccccc1)c1ccc(=O)n(O)c1 (stereo not drawn) [Compound 1, 2-(1-Hydroxy-6-oxo-1,6-dihydropyridine-3-carboxamido)-2-phenylacetic acid]",–,–,–,–,–,12%,Poor inhibition,–
"On1ccccc1=S [Compound 2b, 1-Hydroxypyridine-2-thione]",–,–,–,–,–,–,–,"CC50 at 72 h [2]: 14 nM; growth inhibition activity on its own (E. coli; wild type E. coli, compound alone): over 89%; IC50 (VIM-2 [3]): 908 nM; Ki (VIM-2 [3]): 217 nM; growth inhibition activity on its own (VIM2 expressing E. coli; compound alone): over 89%; inhibition at 50 µM (VIM-2 [1]): 93%"
"O=C(O)c1cccc(=S)n1O [Compound 3, 1-Hydroxypyridine-2(1H)-thiones-6-carboxylic acid]",3.6%,3.2%,77%,61%,98%,–,–,"CC50 (HEK293 cells [4]): 97000 nM; fold change in cytotoxicity from parent compound 2 (HEK293 cells [5]): 6900 fold; antibacterial activity on their own, in words (E. coli; wild type E. coli): moderate antibacterial activity; IC50 (VIM-2 [3]; [8]): 270 nM; Ligand efficiency (LE) (VIM-2 [3]): 0.99; Ki (VIM-2 [3]; [9]): 13 nM; IC50 (VIM-2 [3]; read-out: IC50): 270 nM; Ki (VIM-2 [3]; read-out: Ki): 13 nM; EC50 (VIM-2 expressing E. coli): 100 nM and 110 nM; antibacterial activity on their own, in words (VIM2 expressing E. coli): moderate antibacterial activity; synergistic growth inhibition with amoxicillin (VIM2 expressing E. coli): over 90%; range selectivity among all eleven HDACs (HDACs): ~5000 fold"
O=C(N[C@@H](C(=O)O)c1ccccc1)c1cccc(=S)n1O [Compound 5],–,–,–,–,34%,–,Moderate inhibitory activities,fold loss of Ki relative to compound 3 (VIM-2 [3]): 576 fold; IC50 (VIM-2 [3]; [8]): 67900 nM; Ligand efficiency (LE) (VIM-2 [3]): 0.34; Ki (VIM-2 [3]; [9]): 7500 nM
C[C@H](CS)C(=O)N1CCC[C@H]1C(=O)O [L-Captopril],–,–,–,–,98%,–,–,"antibacterial activity on their own, in words (E. coli; wild type E. coli): moderate antibacterial activity; antibacterial activity on their own, in words (VIM2 expressing E. coli): moderate antibacterial activity; synergistic growth inhibition with amoxicillin (VIM2 expressing E. coli): over 90%; IC50 (VIM-2 [6]): 4400 nM"
O=C(CCCCCCC(=O)Nc1ccccc1)NO [SAHA],3.6%,60%,83%,79%,29%,–,Poor inhibition,–
C[C@]1(Cn2ccnn2)[C@H](C(=O)O)N2C(=O)C[C@H]2S1(=O)=O [Tazobactam],–,–,–,–,25%,≤ 25%,–,–
Zinc pyrithione [Compound 2a],–,–,–,–,15%,–,–,–
